What was measured:
Format in all cases: cell-based
[1] = tested on: A549 human lung carcinoma cells; test: MTS cell viability assay, A549 human lung carcinoma cells; settings: A549, 4 h compound incubation, MTS, read-out: IC50 Values, Cancerous Cells, Lung A549
[2] = tested on: DLD-1 human colon carcinoma cells; test: MTS cell viability assay, DLD-1 human colon carcinoma cells; settings: DLD-1, 4 h compound incubation, MTS, read-out: IC50 Values, Cancerous Cells, Colon DLD-1
[3] = tested on: NCM-460 normal colon epithelial cells; test: MTS cell viability assay, NCM-460 normal colon epithelial cells; settings: for IC50: Homo sapiens, NCM460, NCM-460, 4 h compound incubation, MTS, read-out: IC50 Values, Normal Cells, Colon NCM-460; for Fold Selectivity (NCM-460/DLD1): ratio of IC50 NCM-460 / DLD1
[4] = tested on: DU-145 human prostate carcinoma cells; test: MTS cell viability assay, DU-145 human prostate carcinoma cells; settings: DU-145, 4 h compound incubation, MTS, read-out: IC50 Values, Cancerous Cells, Prostate DU-145
[5] = tested on: K-562 human leukemia cells; test: MTS cell viability assay, K-562 human leukemia cells; settings: K562, K-562, 4 h compound incubation, MTS, read-out: IC50 Values, Cancerous Cells, Leukemia K-562
[6] = tested on: PACA-2 human pancreatic carcinoma cells; test: MTS cell viability assay, PACA-2 human pancreatic carcinoma cells; settings: PACA-2, 4 h compound incubation, MTS, read-out: IC50 Values, Cancerous Cells, Pancreas PACA-2

IC50 [1]	IC50 [2]	IC50 [4]	IC50 [5]	IC50 [6]	Compound	IC50 [3]	Fold Selectivity (NCM-460/DLD1) [3]
7.8 µM	1.43 µM	2.52 µM	1.43 µM	1.48 µM	O=C1C(=O)c2ccccc2C2=C1SCC1(CCN(C3CCCC3)CC1)O2 [Compound 138, 1′-cyclopentylspiro[naphtho[1,2-b][1,4]oxathiine-2,4′-piperidine]-5,6-dione]	3.55 µM	2.5
27.8 µM	4.32 µM	4.42 µM	4.8 µM	4.17 µM	O=C1C(=O)c2ccccc2C2=C1SCC1(CCN(C/C=C/c3ccccc3)CC1)O2 [Compound 139, 1′-[(2E)-3-phenylprop-2-en-1-yl]spiro[naphtho[1.2-b][1,4]oxathiine-2,4′-piperidine]-5,6-dione]	19.5 µM	4.5
21.5 µM	3.37 µM	4.2 µM	4.26 µM	3.93 µM	O=C1C(=O)c2ccccc2C2=C1SCC1(CCN(CCOc3ccccc3)CC1)O2 [Compound 140, 1′-(2-phenoxyethyl)spiro[naphtho[1,2-b][1,4]oxathiine-2,4′-piperidine]-5,6-dione]	12.2 µM	3.6
5.01 µM	1.95 µM	4.01 µM	2.39 µM	2.44 µM	O=C1C(=O)c2ccccc2C2=C1SCC1(CCN(CCCC(F)(F)F)CC1)O2 [Compound 141, 1′-(4,4,4-trifluorobutyl)spiro[naphtho[1,2-b][1,4]oxathiine-2,4′-piperidine]-5,6-dione]	8.13 µM	4.2
44.2 µM	4.25 µM	6.93 µM	8.72 µM	10.5 µM	O=C1C(=O)c2ccccc2C2=C1SCC1(CCN(Cc3ccc(F)c(Cl)c3)CC1)O2 [Compound 142, 1′-(3-chloro-4-fluorobenzyl)spiro[naphtho[1,2-b][1,4]oxathiine-2,4′-piperidine]-5,6-dione]	15.1 µM	3.6
7.39 µM	2.14 µM	4.26 µM	3.29 µM	2.5 µM	C=CCCN1CCC2(CC1)CSC1=C(O2)c2ccccc2C(=O)C1=O [Compound 143, 1′-but-3-en-1-ylspiro[naphtho[1,2-b][1,4]oxathiine-2,4′-piperidine]-5,6-dione]	6.39 µM	3.0
8.19 µM	2.17 µM	4.91 µM	4.32 µM	2.82 µM	O=C1C(=O)c2ccccc2C2=C1SCC1(CCN(CCCOc3ccccc3)CC1)O2 [Compound 144, 1′-(3-phenoxypropyl)spiro[naphtho[1,2-b][1,4]oxathiine-2,4′-piperidine]-5,6-dione]	9.9 µM	4.6
5.55 µM	3.8 µM	4.03 µM	7.87 µM	2.74 µM	O=C1C(=O)c2ccccc2C2=C1SCC1(CCN(CCOc3ccc(Cl)cc3)CC1)O2 [Compound 145, 1′-[2-(4-chlorophenoxy)ethyl]spiro[naphtho[1,2-b][1,4]oxathiine-2,4′-piperidine]-5,6-dione]	21 µM	5.5
38.2 µM	4.53 µM	5.77 µM	12.1 µM	4.1 µM	Cc1ccc(CN2CCC3(CC2)CSC2=C(O3)c3ccccc3C(=O)C2=O)cc1F [Compound 146, 1′-(3-fluoro-4-methylbenzyl)spiro[naphtho[1,2-b][1,4]oxathiine-2,4′-piperidine]-5,6-dione]	26.4 µM	5.8
8.03 µM	3.63 µM	2.26 µM	7.6 µM	2.08 µM	CC(C)(C)c1ccc(OCC(O)CN2CCC3(CC2)CSC2=C(O3)c3ccccc3C(=O)C2=O)cc1 (stereo not shown) [Compound 157, 1′-[3-(4-tert-butylphenoxy)-2-hydroxypropyl]spiro[naphtho[1,2-b][1,4]oxathiine-2,4′-piperidine]-5,6-dione]	28.2 µM	7.8
5.6 µM	1.48 µM	1.71 µM	1.44 µM	1.32 µM	O=C1C(=O)c2ccccc2C2=C1SCC1(CCN(CC(O)COc3ccccc3)CC1)O2 (stereo not shown) [Compound 158, 1′-(2-hydroxy-3-phenoxypropyl)spiro[naphtho[1,2-b][1,4]oxathiine-2,4′-piperidine]-5,6-dione]	4.91 µM	3.3
14.3 µM	4.47 µM	5.03 µM	4.13 µM	4.03 µM	C=CC(C)(O)CN1CCC2(CC1)CSC1=C(O2)c2ccccc2C(=O)C1=O (stereo not shown) [Compound 159, 1′-(2-hydroxy-2-methylbut-3-en-1-yl)spiro[naphtho[1,2-b][1,4]oxathiine-2,4′-piperidine]-5,6-dione]	10.2 µM	2.3
6.72 µM	1.69 µM	3.92 µM	1.53 µM	1.55 µM	O=C1C(=O)c2ccccc2C2=C1SCC1(CCN(CC(O)CC(F)(F)F)CC1)O2 (stereo not shown) [Compound 160, 1′-(4,4,4-trifluoro-2-hydroxybutyl)spiro[naphtho[1,2-b][1,4]oxathiine-2,4′-piperidine]-5,6-dione]	5.56 µM	3.3
6.95 µM	1.36 µM	2.77 µM	1.5 µM	1.45 µM	CCCCC(O)CN1CCC2(CC1)CSC1=C(O2)c2ccccc2C(=O)C1=O (stereo not shown) [Compound 162, 1′-(2-hydroxyhexyl)spiro[naphtho[2-b][1,4]oxathiine-2,4′-piperidine]-5,6-dione]	2.8 µM	2.1
9.02 µM	1.52 µM	2.88 µM	3.12 µM	1.42 µM	O=C1C(=O)c2ccccc2C2=C1SCC1(CCN(CC(O)COc3ccc(F)cc3)CC1)O2 (stereo not shown) [Compound 164, 1′-[3-(4-fluorophenoxy)-2-hydroxypropyl]spiro[naphtho[1,2-b][1,4]oxathiine-2,4′-piperidine]-5,6-dione]	9.74 µM	6.4
6.73 µM	1.92 µM	3.08 µM	2.31 µM	1.44 µM	O=C1C(=O)c2ccccc2C2=C1SCC1(CCN(CC(O)COCc3ccco3)CC1)O2 (stereo not shown) [Compound 165, 1′-[3-(2-furylmethoxy)-2-hydroxypropyl]spiro[naphtho[2-b][1,4]oxathiine-2,4′-piperidine]-5,6-dione]	4.71 µM	2.5
13.6 µM	3.7 µM	4.16 µM	2.26 µM	1.47 µM	O=C1C(=O)c2ccccc2C2=C1SCC1(CCN(CC(O)CN3CCOCC3)CC1)O2 (stereo not shown) [Compound 166, 1′-(2-hydroxy-3-morpholin-4-ylpropyl)spiro[naphtho[1,2-b][1,4]oxathiine-2,4′-piperidine]-5,6-dione]	8.69 µM	2.3
7.56 µM	1.35 µM	2.76 µM	1.53 µM	1.26 µM	O=C1C(=O)c2ccccc2C2=C1SCC1(CCN(CC(O)c3ccccc3)CC1)O2 (stereo not shown) [Compound 167, 1′-(2-hydroxy-2-phenylethyl)spiro[naphtho[1,2-b][1,4]oxathiine-2,4′-piperidine]-5,6-dione]	3.68 µM	2.7
4.69 µM	1.49 µM	1.42 µM	5.31 µM	1.37 µM	CCc1ccc(OCC(O)CN2CCC3(CC2)CSC2=C(O3)c3ccccc3C(=O)C2=O)cc1 (stereo not shown) [Compound 170, 1′-[3-(4-ethylphenoxy)-2-hydroxypropyl]spiro[naphtho[1,2-b][1,4]oxathiine-2,4′-piperidine]-5,6-dione]	14 µM	9.4
6.55 µM	1.34 µM	3.22 µM	3.6 µM	1.46 µM	O=C1C(=O)c2ccccc2C2=C1SCC1(CCN(CC(O)COCc3ccccc3)CC1)O2 (stereo not shown) [Compound 171, 1′-[3-(benzyloxy)-2-hydroxypropyl]spiro[naphtho[12-b][1,4]oxathiine-2,4′-piperidine]-5,6-dione]	9.69 µM	7.2
6.16 µM	1.36 µM	1.55 µM	1.48 µM	1.09 µM	O=C1C(=O)c2ccccc2C2=C1SCC1(CCN(CC(O)COc3ccccc3Cl)CC1)O2 (stereo not shown) [Compound 172, 1′-[3-(2-chlorophenoxy)-2-hydroxypropyl]spiro[naphtho[1,2-b][1,4]oxathiine-2,4′-piperidine]-5,6-dione]	5.53 µM	4.1
7 µM	1.49 µM	2.92 µM	4.1 µM	1.42 µM	Cc1ccccc1OCC(O)CN1CCC2(CC1)CSC1=C(O2)c2ccccc2C(=O)C1=O (stereo not shown) [Compound 173, 1′-[2-hydroxy-3-(2-methylphenoxy)propyl]spiro[naphtho[1,2-b][1,4]oxathiine-2,4′-piperidine]-5,6-dione]	10.3 µM	6.9
